Reference: patent US20090304692A1, “TRIAZINE COMPOUNDS AS PI3 KINASE AND MTOR INHIBITORS” (Wyeth, priority 2008, published 2009)
“And” between values parts separate entries of the source, which are not always exact repeats. Identical values can stand only once. Like-named read-outs stand apart in the source and are kept apart here.

Tests used:
[1] = test system: human prostate PC3-mm2 tumor cell line; experiment: In vitro cell culture growth assay (MTS), PC3-mm2; format: cell-based; conditions: Homo sapiens, PC3MM2, 72 h, three days after drug treatment, read-out: IC50 PC3-mm2
PI3K-γ = PI3K-γ (Homo sapiens, UniProt P48736); experiment: PI3K-gamma fluorescence polarization assay; conditions: read-out: IC50 PI3Kγ
[2] = test system: human breast MDA-MB-361 tumor cell line; experiment: In vitro cell culture growth assay (MTS), MDA-MB-361; format: cell-based; conditions: Homo sapiens, three days after drug treatment, read-out: IC50 MDA-MB-361
PI3K-α = PI3K-α (Homo sapiens, UniProt P42336); experiment: PI3K-alpha fluorescence polarization assay; conditions: read-out: IC50 PI3Kα
Human mTOR (FLAG-TOR) = Human mTOR (FLAG-TOR) (Homo sapiens, UniProt P42345); experiment: mTOR kinase assay (DELFIA format, purified enzyme); format: biochemical; conditions: read-out: IC50 mTOR
[3] = MDA-MB-361, 72 h, MTS cell growth assay
[4] = MTS cell growth assay, PC3-mm2 cells
[5] = MDA-MB-361, 72 h, MTS cell growth assay, MDA-MB-361 cells
[6] = 72 h, MTS cell growth assay, MDA-MB-361 cells

Human mTOR (FLAG-TOR), sequence (P42345 1360-2549 limits assumed): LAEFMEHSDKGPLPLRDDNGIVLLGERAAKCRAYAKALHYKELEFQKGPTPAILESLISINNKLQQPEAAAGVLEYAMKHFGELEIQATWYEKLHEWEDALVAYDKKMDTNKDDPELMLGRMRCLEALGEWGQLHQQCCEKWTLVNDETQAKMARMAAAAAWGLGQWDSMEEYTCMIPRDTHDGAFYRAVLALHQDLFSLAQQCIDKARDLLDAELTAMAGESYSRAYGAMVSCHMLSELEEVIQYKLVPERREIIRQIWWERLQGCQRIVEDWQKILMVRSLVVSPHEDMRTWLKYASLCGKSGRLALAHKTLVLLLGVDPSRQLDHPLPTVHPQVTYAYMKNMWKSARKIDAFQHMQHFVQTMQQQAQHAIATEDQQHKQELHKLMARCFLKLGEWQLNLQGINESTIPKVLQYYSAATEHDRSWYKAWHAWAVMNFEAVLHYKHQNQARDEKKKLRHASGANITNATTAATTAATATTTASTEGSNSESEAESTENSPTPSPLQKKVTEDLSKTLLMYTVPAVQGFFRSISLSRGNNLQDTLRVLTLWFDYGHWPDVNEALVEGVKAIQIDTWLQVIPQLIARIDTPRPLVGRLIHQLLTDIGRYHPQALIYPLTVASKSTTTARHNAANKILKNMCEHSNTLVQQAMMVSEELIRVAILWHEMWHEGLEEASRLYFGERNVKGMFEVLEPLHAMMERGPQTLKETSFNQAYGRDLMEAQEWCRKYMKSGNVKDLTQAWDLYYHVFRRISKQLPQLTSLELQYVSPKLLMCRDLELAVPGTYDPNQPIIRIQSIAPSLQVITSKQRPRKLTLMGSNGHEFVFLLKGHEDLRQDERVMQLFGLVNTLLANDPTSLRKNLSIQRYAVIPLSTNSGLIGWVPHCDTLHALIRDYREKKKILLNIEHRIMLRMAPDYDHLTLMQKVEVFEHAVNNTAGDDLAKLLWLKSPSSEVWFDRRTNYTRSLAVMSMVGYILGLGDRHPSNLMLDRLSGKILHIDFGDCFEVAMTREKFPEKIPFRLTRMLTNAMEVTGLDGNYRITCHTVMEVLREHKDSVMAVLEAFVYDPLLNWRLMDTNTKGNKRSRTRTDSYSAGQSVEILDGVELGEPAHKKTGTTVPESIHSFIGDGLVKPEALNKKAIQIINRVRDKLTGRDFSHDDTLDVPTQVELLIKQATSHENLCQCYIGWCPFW
PI3K-γ, sequence (P48736 whole entry, species assumed): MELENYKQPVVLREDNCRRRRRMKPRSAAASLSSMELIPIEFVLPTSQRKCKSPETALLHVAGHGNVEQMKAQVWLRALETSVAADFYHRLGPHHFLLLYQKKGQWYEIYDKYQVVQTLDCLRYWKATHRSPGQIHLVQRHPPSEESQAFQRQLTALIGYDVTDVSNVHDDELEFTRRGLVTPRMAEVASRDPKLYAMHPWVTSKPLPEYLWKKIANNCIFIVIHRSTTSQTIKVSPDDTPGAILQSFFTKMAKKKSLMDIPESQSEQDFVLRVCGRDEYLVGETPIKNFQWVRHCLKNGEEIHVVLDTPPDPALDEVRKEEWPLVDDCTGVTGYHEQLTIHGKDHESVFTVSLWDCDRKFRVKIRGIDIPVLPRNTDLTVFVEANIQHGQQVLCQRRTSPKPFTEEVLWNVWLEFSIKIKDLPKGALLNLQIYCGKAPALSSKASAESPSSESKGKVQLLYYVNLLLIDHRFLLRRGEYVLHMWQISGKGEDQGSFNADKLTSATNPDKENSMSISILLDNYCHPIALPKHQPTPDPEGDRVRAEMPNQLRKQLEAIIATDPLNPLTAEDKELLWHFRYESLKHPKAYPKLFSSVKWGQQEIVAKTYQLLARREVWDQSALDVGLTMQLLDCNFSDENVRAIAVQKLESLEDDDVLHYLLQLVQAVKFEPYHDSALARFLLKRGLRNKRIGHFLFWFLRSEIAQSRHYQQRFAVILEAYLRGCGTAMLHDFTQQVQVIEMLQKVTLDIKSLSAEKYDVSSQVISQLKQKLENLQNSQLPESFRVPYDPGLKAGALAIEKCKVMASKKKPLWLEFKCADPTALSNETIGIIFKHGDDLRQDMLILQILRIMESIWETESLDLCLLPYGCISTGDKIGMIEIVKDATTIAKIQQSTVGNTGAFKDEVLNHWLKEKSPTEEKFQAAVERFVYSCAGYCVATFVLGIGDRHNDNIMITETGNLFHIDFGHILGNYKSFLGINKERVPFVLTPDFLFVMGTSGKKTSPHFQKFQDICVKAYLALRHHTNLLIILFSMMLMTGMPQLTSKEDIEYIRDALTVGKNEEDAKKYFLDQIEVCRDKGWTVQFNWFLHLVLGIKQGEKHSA
PI3K-α, sequence (P42336 whole entry, species assumed): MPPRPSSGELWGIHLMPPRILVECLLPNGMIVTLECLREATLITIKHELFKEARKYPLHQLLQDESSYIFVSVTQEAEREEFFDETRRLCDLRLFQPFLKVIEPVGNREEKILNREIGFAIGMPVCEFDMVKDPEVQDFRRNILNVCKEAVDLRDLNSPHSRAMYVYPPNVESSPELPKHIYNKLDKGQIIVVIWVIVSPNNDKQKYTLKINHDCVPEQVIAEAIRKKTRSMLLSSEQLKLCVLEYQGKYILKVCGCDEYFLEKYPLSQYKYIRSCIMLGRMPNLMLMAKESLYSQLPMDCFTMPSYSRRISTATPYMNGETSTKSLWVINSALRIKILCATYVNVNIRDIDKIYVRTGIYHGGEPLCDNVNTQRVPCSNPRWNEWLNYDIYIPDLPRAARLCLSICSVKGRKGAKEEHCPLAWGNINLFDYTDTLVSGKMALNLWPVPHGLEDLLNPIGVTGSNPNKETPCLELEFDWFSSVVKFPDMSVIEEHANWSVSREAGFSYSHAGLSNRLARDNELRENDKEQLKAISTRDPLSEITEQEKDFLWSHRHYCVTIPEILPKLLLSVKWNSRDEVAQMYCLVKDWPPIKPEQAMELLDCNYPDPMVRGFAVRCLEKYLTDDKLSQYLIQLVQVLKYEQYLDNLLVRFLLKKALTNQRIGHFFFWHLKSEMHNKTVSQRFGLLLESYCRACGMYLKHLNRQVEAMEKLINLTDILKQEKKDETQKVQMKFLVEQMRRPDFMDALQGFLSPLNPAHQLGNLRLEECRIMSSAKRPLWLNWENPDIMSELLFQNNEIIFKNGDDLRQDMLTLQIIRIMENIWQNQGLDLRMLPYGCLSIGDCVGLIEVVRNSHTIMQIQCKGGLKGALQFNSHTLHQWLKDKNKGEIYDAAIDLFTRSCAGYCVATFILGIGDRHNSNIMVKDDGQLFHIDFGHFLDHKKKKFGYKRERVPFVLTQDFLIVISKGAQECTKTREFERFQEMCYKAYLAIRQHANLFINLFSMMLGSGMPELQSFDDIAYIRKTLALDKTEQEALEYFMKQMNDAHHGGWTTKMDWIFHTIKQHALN
PI3K-α, sequence (P27986 whole entry partner, species assumed): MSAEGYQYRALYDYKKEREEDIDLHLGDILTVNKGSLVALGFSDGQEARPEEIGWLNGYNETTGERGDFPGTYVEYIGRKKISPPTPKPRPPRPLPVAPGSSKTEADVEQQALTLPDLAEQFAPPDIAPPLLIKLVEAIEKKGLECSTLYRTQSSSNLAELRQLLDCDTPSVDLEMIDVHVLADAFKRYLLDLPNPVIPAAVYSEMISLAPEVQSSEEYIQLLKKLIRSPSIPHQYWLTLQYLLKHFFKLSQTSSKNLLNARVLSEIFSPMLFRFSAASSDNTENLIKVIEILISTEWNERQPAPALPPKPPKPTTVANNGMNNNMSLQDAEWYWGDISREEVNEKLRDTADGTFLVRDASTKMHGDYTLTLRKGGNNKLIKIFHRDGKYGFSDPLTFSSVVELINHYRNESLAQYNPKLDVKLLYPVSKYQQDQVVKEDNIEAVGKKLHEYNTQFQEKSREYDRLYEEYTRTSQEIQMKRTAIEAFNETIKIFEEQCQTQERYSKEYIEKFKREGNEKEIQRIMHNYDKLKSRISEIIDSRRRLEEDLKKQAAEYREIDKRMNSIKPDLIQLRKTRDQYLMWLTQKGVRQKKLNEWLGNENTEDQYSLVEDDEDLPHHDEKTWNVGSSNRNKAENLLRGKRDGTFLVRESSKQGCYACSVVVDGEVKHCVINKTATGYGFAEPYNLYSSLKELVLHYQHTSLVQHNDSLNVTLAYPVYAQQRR

IC50 ([1]; MTS cell growth assay) [nM]	IC50 (PI3K-γ) [nM]	IC50 [2, 3] [nM]	IC50 (PI3K-α) [nM]	IC50 (Human mTOR (FLAG-TOR))	IC50 [1, 4] [nM]	IC50 [2, 5] [nM]	IC50 (PI3K-α; listed as 535) [nM]	IC50 [2, 6] [nM]	IC50 ([2]; 72 h, MDA-MB-361 cells, MTS) [nM]	IC50 (PI3K-γ; listed as 730) [nM]	IC50 (PI3K-α; listed as 730) [nM]	SMILES	IC50 ([1]; PC3-mm2 cells, MTS) [nM]	IC50 ([2]; MDA-MB-361, 72 h, MDA-MB-361 cells, MTS) [nM]	IC50 (PI3K-γ; listed as 673) [nM]
317	38	184	11	3.2 nM	–	–	–	–	–	–	–	CCCCc1nc(-c2ccc(NC(=O)Nc3ccc(CO)cc3)cc2)nc(N2CCOCC2)n1 [Example 239, 1-[4-(4-butyl-6-morpholin-4-yl-1,3,5-triazin-2-yl)phenyl]-3-[4-(hydroxymethyl)phenyl]urea]	–	–	–
395	112	554	43	80 nM and 81.5 nM	395	–	43.5	–	–	–	–	CN(C)C1CCN(c2ccc(NC(=O)Nc3ccc(-c4nc(-c5ccccc5)nc(N5CCOCC5)n4)cc3)cc2)CC1 [Example 345, 1-{4-[4-(dimethylamino)piperidin-1-yl]phenyl}-3-[4-(4-morpholin-4-yl-6-phenyl-1,3,5-triazin-2-yl)phenyl]urea]	–	–	–
–	55.5	–	3.5	10 nM	73	–	–	4	–	–	–	CN(C)CCN(C)C(=O)c1ccc(NC(=O)Nc2ccc(-c3nc(N4CCCC4)nc(N4CCOCC4)n3)cc2)cc1 [Example 604, N-[2-(dimethylamino)ethyl]-N-methyl-4-({[4-(4-morpholin-4-yl-6-pyrrolidin-1-yl-1,3,5-triazin-2-yl)phenyl]carbamoyl}amino)benzamide]	–	–	–
–	133	–	28	4 nM	120	–	–	28	–	–	–	CC(C)CN1CCN(C(=O)c2ccc(NC(=O)Nc3ccc(-c4nc(N5CCOC[C@@H]5C)nc(N5CCOC[C@@H]5C)n4)cc3)cc2)CC1 [Example 631, 1-(4-{4,6-bis[(3S)-3-methylmorpholin-4-yl]-1,3,5-triazin-2-yl}phenyl)-3-(4-{[4-(2-methylpropyl)piperazin-1-yl]carbonyl}phenyl)urea]	–	–	–
< 30	15	< 30	1	1.9 nM	–	–	–	–	–	–	–	O=C(Nc1ccc(CO)cc1)Nc1ccc(-c2nc(N3CCOCC3)nc(N3CCOCC3)n2)cc1 [Example 51, 1-[4-(4,6-dimorpholin-4-yl-1,3,5-triazin-2-yl)phenyl]-3-[4-(hydroxymethyl)phenyl]urea]	–	–	–
–	46.5	–	7	11 nM	122	17	–	–	–	–	–	CN(C)C1CCN(C(=O)c2ccc(NC(=O)Nc3ccc(-c4nc(N5CCCC5)nc(N5CCOCC5)n4)cc3)cc2)CC1 [Example 602, 1-(4-{[4-(dimethylamino)piperidin-1-yl]carbonyl}phenyl)-3-[4-(4-morpholin-4-yl-6-pyrrolidin-1-yl-1,3,5-triazin-2-yl)phenyl]urea]	–	–	–
–	102	–	18.5	2 nM	55	–	–	16	–	–	–	CCCCN1CCN(C(=O)c2ccc(NC(=O)Nc3ccc(-c4nc(N5CCOC[C@H]5C)nc(N5CCOC[C@@H]5C)n4)cc3)cc2)CC1 [Example 627, 1-{4-[(4-butylpiperazin-1-yl)carbonyl]phenyl}-3-(4-{4-[(3R)-3-methylmorpholin-4-yl]-6-[(3S)-3-methylmorpholin-4-yl]-1,3,5-triazin-2-yl}phenyl)urea]	–	–	–
< 30	4	< 30	0.3	0.68 nM	–	–	–	–	–	–	–	O=C(Nc1ccc(C(=O)N2CCNCC2)cc1)Nc1ccc(-c2nc(N3CCOCC3)nc(N3CCOCC3)n2)cc1 [Example 77, 1-(4-(4,6-dimorpholino-1,3,5-triazin-2-yl)phenyl)-3-(4-(piperazine-1-carbonyl)phenyl)urea]	–	–	–
–	10.3	–	2.3	0.52 nM	10	2	–	–	–	–	–	CN1CCN(C(=O)c2ccc(NC(=O)Nc3ccc(-c4nc(C5CCOCC5)nc(N5CCOCC5)n4)cc3)cc2)CC1 [Example 511, 1-{4-[(4-methylpiperazin-1-yl)carbonyl]phenyl}-3-{4-[4-morpholin-4-yl-6-(tetrahydro-2H-pyran-4-yl)-1,3,5-triazin-2-yl]phenyl}urea]	–	–	–
–	24	–	1.9	0.765 nM	–	–	–	–	3	–	–	CN(C)CCNC(=O)c1ccc(NC(=O)Nc2ccc(-c3nc(N4CCOCC4)nc(N4CC5CCC4CO5)n3)cc2)cc1 (centres unmarked) [Example 815, N-[2-(dimethylamino)ethyl]-4-[({4-[4-morpholin-4-yl-6-(2-oxa-5-azabicyclo[2.2.2]oct-5-yl)-1,3,5-triazin-2-yl]phenyl}carbamoyl)amino]benzamide]	24	–	–
200	58	94	17	3.5 nM and 4.3 nM	200	–	–	–	–	64.5	15.5	O=C(Nc1ccncc1)Nc1ccc(-c2nc(CCC3OCCCO3)nc(N3CCOCC3)n2)cc1 [Example 267, 1-(4-{4-[2-(1,3-dioxan-2-yl)ethyl]-6-morpholin-4-yl-1,3,5-triazin-2-yl}phenyl)-3-pyridin-4-ylurea]	–	–	–
–	15.5	–	3.5	42 nM	262	< 31	–	–	–	–	–	CN1CCN(C(=O)c2ccc(NC(=O)Nc3ccc(-c4nc(-c5ccccc5)nc(N5CCOCC5)n4)cc3)cc2)CC1 [Example 543, 1-{4-[(4-methylpiperazin-1-yl)carbonyl]phenyl}-3-[4-(4-morpholin-4-yl-6-phenyl-1,3,5-triazin-2-yl)phenyl]urea]	–	–	–
–	174	–	40.5	88 nM	> 1000	–	–	> 1000	–	–	–	CN1CCN(C(=O)c2ccc(NC(=O)Nc3ccc(-c4nc(NS(=O)(=O)c5ccccc5)nc(N5CCOCC5)n4)cc3)cc2)CC1 [Example 784, N-(4-{4-[({4-[(4-methylpiperazin-1-yl)carbonyl]phenyl}carbamoyl)amino]phenyl}-6-morpholin-4-yl-1,3,5-triazin-2-yl)benzenesulfonamide]	–	–	–
–	6	–	0.5	1 nM	11	–	–	4	–	–	–	CN1CCCN(C(=O)Nc2ccc(NC(=O)Nc3ccc(-c4nc(N5CCOCC5)nc(N5CCOCC5)n4)cc3)cc2)CC1 [Example 502, N-[4-({[4-(4,6-dimorpholin-4-yl-1,3,5-triazin-2-yl)phenyl]carbamoyl}amino)phenyl]-4-methyl-1,4-diazepane-1-carboxamide]	–	–	–
–	123	–	14.5	1 nM	27	–	–	16	–	–	–	COCCNC(=O)c1ccc(NC(=O)Nc2ccc(-c3nc(N4CCOC[C@@H]4C)nc(N4CCOC[C@@H]4C)n3)cc2)cc1 [Example 639, 4-{[(4-{4,6-bis[(3S)-3-methylmorpholin-4-yl]-1,3,5-triazin-2-yl}phenyl)carbamoyl]amino}-N-(2-methoxyethyl)benzamide]	–	–	–
187	74	119	8	16.5 nM	–	–	–	–	–	–	–	CC(O)c1cccc(NC(=O)Nc2ccc(-c3nc(N4CCOCC4)nc(N4CCOCC4)n3)cc2)c1 (centres unmarked) [Example 57, 1-[4-(4,6-dimorpholin-4-yl-1,3,5-triazin-2-yl)phenyl]-3-[3-(1-hydroxyethyl)phenyl]urea]	–	–	–

SMILES	IC50 ([1]; MTS cell growth assay) [nM]	IC50 (PI3K-γ) [nM]	IC50 [2, 3] [nM]	IC50 (PI3K-α) [nM]	IC50 (Human mTOR (FLAG-TOR))	IC50 [1, 4] [nM]	IC50 [2, 5] [nM]	IC50 (PI3K-α; listed as 535) [nM]	IC50 [2, 6] [nM]	IC50 ([2]; 72 h, MDA-MB-361 cells, MTS) [nM]	IC50 (PI3K-γ; listed as 730) [nM]	IC50 (PI3K-α; listed as 730) [nM]	IC50 ([1]; PC3-mm2 cells, MTS) [nM]	IC50 ([2]; MDA-MB-361, 72 h, MDA-MB-361 cells, MTS) [nM]	IC50 (PI3K-γ; listed as 673) [nM]
O=C(Nc1ccc(C(=O)NC2CN3CCC2CC3)cc1)Nc1ccc(-c2nc(N3CCOCC3)nc(N3CCOCC3)n2)cc1 (centres unmarked) [Example 73, 4-(3-(4-(4,6-dimorpholino-1,3,5-triazin-2-yl)phenyl)ureido)-N-(quinuclidin-3-yl)benzamide]	107	7	30	0.3	0.77 nM	–	–	–	–	–	–	–	–	–	–
CC(C)N1CCN(C(=O)c2ccc(NC(=O)Nc3ccc(-c4nc(N5CCOCC5)nc(N5C6COCC5COC6)n4)cc3)cc2)CC1 [Example 773, 1-{4-[4-(3,7-dioxa-9-azabicyclo[3.3.1]non-9-yl)-6-morpholin-4-yl-1,3,5-triazin-2-yl]phenyl}-3-{4-[(4-isopropylpiperazin-1-yl)carbonyl]phenyl}urea]	–	36.5	–	3	0.305 nM	6	4	–	–	–	–	–	–	–	–
O=C(Nc1ccc(C(=O)N2CCC(N3CCCC3)CC2)cc1)Nc1ccc(-c2nc(N3CCOCC3)nc(N3C4CCCC3COC4)n2)cc1 [Example 800, 1-{4-[4-morpholin-4-yl-6-(3-oxa-9-azabicyclo[3.3.1]non-9-yl)-1,3,5-triazin-2-yl]phenyl}-3-{4-[(4-pyrrolidin-1-ylpiperidin-1-yl)carbonyl]phenyl}urea]	–	35.5	–	5.5	0.72 nM	–	–	–	–	–	–	–	11	1	–
O=C(Nc1ccc(CO)cc1)Nc1ccc(-c2nc(N3CCOCC3)nc(N3C4CCC3COC4)n2)cc1 [Example 38, 1-[4-(hydroxymethyl)phenyl]-3-{4-[4-morpholin-4-yl-6-(3-oxa-8-azabicyclo[3.2.1]oct-8-yl)-1,3,5-triazin-2-yl]phenyl}urea]	28	91	15	7	0.28 nM and 0.43 nM	28	–	–	–	–	–	–	–	–	98.7
